Test results published in US20160206688A1, “METHODS FOR TREATING BACTEREMIA AND OSTEOMYELITIS USING ORITAVANCIN” (THE MEDICINES COMPANY, priority 2013, published 2016).
Values after ≈ are worked out from the molar mass of the structure shown.

Legend:
[1] = tested on: VRE; test: Susceptibility of the subject's blood culture isolate (treatment history); assay type: cell-based
Source text: 11, 2013; the plan was for at least 8 weeks of antibiotic therapy.

[2] = tested on: S. aureus; test: Broth microdilution MIC, European bacteraemia isolates 2010-2012; assay type: cell-based; settings: S. aureus Methicillin-resistant (1,708)
Experimental: (§1) A total of 2,904 clinical strains responsible for documented bacteremia among unique hospitalized patients in 38 hospitals in 11 European Union countries. Israel, Russia, Turkey and Ukraine were included in this study (2010-2012). Isolates were submitted to a central monitoring laboratory (JMI Laboratories, North Liberty. Iowa. USA), following previously established protocols. Bacterial species identification was performed by using an automated system (Vitek®2; bioMèrieux, Hazelwood, Mo., USA) or conventional biochemical algorithms, as required.
(§2) Isolates were tested for susceptibility by broth microdilution methods following the Clinical and Laboratory Standards Institute (CLSI; M07-A9, 2012) document. Susceptibility testing was performed in cation-adjusted Mueller-Hinton broth (CA-MHB) using dry-form panels manufactured by Thermo Fisher Scientific, formerly TREK Diagnostics Systems/Sensititre (Cleveland. Ohio, USA). These panels provide results equivalent to the CLSI-approved broth microdilution method supplemented with 0.002% polysorbate-80.
(§3) Quality assurance was performed by concurrent testing of CLSI-recommended (M100-S23, 2013) strains: E. faecalis ATCC 29212 and S. aureus ATCC 29213. Interpretation of comparator MIC results was in accordance with published CLSI (M100-S23) and European Committee on Antimicrobial Susceptibility Testing (EUCAST, 2013) criteria.

[3] = tested on: Coagulase-negative staphylococci; test: as above; assay type: cell-based, coagulase-negative staphylococci (CoNS); settings: Table 2, Coagulase-negative staphylococci (646)
Experimental: as §1, §2, §3

[4] = tested on: E. faecalis; test: as above; assay type: cell-based, Enterococcus faecalis
Experimental: as §1, §2, §3

[5] = tested on: E. faecium; test: as above; assay type: cell-based, Enterococcus faecium; settings: for % Susceptible, CLSI: CLSI M100-S23 breakpoints; for MIC90: read-out: MIC 90%
Experimental: as §1, §2, §3

[6] = tested on: E. faecalis; test: Broth microdilution MIC, US isolates 2011-2012, blood vs non-blood; assay type: cell-based
Experimental: (§4) 527 E. faecalis, 176 E. faecium, and 790 BHS (335 S. pyogenes and 455 S. agalactiae) clinical, single patient, non-consecutive isolates were collected in 2011-2012 from 46 sites geographically distributed across the United States. The MICs were determined by broth microdilution testing performed in accordance with CLSI M7 and M100 guidelines. From the resulting database, this analysis focused on the activities of ORI, vancomycin (VAN), daptomycin (DAP), and linezolid (LZD) according to specimen source.

[7] = tested on: E. faecium; test: as above; assay type: cell-based
Experimental: as §4

[8] = tested on: S. agalactiae; test: as above; assay type: cell-based
Experimental: as §4

[9] = tested on: S. pyogenes; test: as above; assay type: cell-based
Experimental: as §4

[10] = tested on: MDR SA; test: Microdilution MIC against MDR SA by specimen source; assay type: cell-based, S. aureus
Experimental: 456 clinical, single-patient, non-consecutive, MDR SA isolates from the known specimen sources collected in 2011-2012 were analyzed. MDR was defined as resistant to ≧3 of the following: erythromycin, clindamycin, gentamicin, levofloxacin, and trimethoprim/sulfamethoxazole. 382 were MRSA and 74 were MSSA. MICs were determined by microdilution testing in accordance with CLSI M7 and M100 guidelines. Although other comparator drugs were tested, this analysis focuses on the activities of ORI, VAN, DAP, and LZD.

[11] = Table 2, E. faecium Vancomycin-susceptible (257)

With `CCCCCCCCCC(=O)N[C@@H](Cc1c[nH]c2ccccc12)C(=O)N[C@H](CC(N)=O)C(=O)N[C@@H](CC(=O)O)C(=O)N[C@@H]1C(=O)NCC(=O)N[C@@H](CCCN)C(=O)N[C@@H](CC(=O)O)C(=O)N[C@H](C)C(=O)N[C@@H](CC(=O)O)C(=O)NCC(=O)N[C@H](CO)C(=O)N[C@@H]([C@H](C)CC(=O)O)C(=O)N[C@@H](CC(=O)c2ccccc2N)C(=O)O[C@@H]1C` [Daptomycin, daptomycin] the MIC ([1]; 2012 December) was 6 µg/mL (≈ 3.7 µM), the MIC ([1]; 2012 July) was 4 µg/mL (≈ 2.47 µM) and the susceptibility ([1]; 2012 July) was “borderline susceptible”. The “% Susceptible, CLSI” value ([2]; CLSI M100-S23 breakpoints) was 100.0/— %, the “% Resistant, EUCAST” value ([2]; EUCAST 2013 breakpoints) was 0.0% and the “% Susceptible, EUCAST” value ([2]; EUCAST 2013 breakpoints) was 100.0%. For the same molecule, the MIC50 ([2]; Staphylococcus aureus, Table 2, read-out: MIC 50%) was 0.25 µg/mL (≈ 0.154 µM), the MIC90 ([2]; Staphylococcus aureus, Table 2, read-out: MIC 90%) was 0.5 µg/mL (≈ 0.309 µM) and the “MIC Range” value ([2]; Table 2) was 0.12 to 1 µg/mL. The “MIC Range” value [3] was “≦0.06-2 mg/L”, the MIC50 ([3]; read-out: MIC 50%) was 0.25 µg/mL (≈ 0.154 µM) and the MIC90 ([3]; read-out: MIC 90%) was 0.5 µg/mL (≈ 0.309 µM). The “% Susceptible, CLSI” value ([4]; E. faecalis (445), CLSI M100-S23 breakpoints) was 100.0/— %, the “% susceptible” value ([4]; E. faecalis strains, criteria not stated) was 100% and the MIC50 ([4]; Enterococcus faecalis, Table 2, E. faecalis (445), read-out: MIC 50%) was 1 µg/mL (≈ 0.617 µM). The MIC90 ([4]; Enterococcus faecalis, Table 2, E. faecalis (445), read-out: MIC 90%) was 1 µg/mL (≈ 0.617 µM), the “MIC Range” value ([4]; Table 2, E. faecalis (445), includes four VanA-phenotype strains) was “≦0.06-4 mg/L” and the “% Susceptible, CLSI” value ([5]; E. faecium Vancomycin-resistant (VanA-phenotype) (153)) was 100.0/— %. The “% Susceptible, CLSI” value ([5]; E. faecium Vancomycin-susceptible (257)) was 100.0/— %, the MIC50 ([5]; Enterococcus faecium, Table 2, E. faecium Vancomycin-resistant (VanA-phenotype) (153), read-out: MIC 50%) was 2 µg/mL (≈ 1.23 µM) and the MIC90 ([5]; Enterococcus faecium, Table 2, E. faecium Vancomycin-resistant (VanA-phenotype) (153)) was 2 µg/mL (≈ 1.23 µM). For the same molecule, the MIC90 ([5]; Enterococcus faecium, Table 2, E. faecium Vancomycin-susceptible (257)) was 2 µg/mL (≈ 1.23 µM), the “MIC Range” value ([5]; Table 2, E. faecium Vancomycin-resistant (VanA-phenotype) (153)) was 0.25 to 4 µg/mL and the “MIC 50%” value [5, 11] was 2 µg/mL (≈ 1.23 µM). The “MIC Range” value [5, 11] was 0.12 to 4 µg/mL, the “% susceptible” value ([5]; VanA-phenotype E. faecium, criteria not stated) was 100% and the MIC90 ([6]; Blood, N 116) was 2 µg/mL (≈ 1.23 µM). It also gave an MIC90 ([6]; Non-Blood, N 411) of 2 µg/mL (≈ 1.23 µM), an MIC90 ([7]; Blood, N 84) of 4 µg/mL (≈ 2.47 µM) and an MIC90 ([7]; Non-Blood, N 92) of 4 µg/mL (≈ 2.47 µM). The MIC90 ([8]; Blood, N 100) was 0.25 µg/mL (≈ 0.154 µM), the MIC90 ([8]; Non-Blood, N 355) was 0.25 µg/mL (≈ 0.154 µM) and the MIC90 ([9]; Blood, N 53) was 0.06 µg/mL (≈ 0.037 µM). The MIC90 ([9]; Non-Blood, N 282) was 0.06 µg/mL (≈ 0.037 µM), the MIC50 ([10]; Blood, n = 108) was 0.5 µg/mL (≈ 0.309 µM) and the MIC90 ([10]; Blood, n = 108) was 0.5 µg/mL (≈ 0.309 µM). For the same molecule, the Mode (MIC) ([10]; Blood, n = 108) was 0.5 µg/mL, the “Range (MIC)” value ([10]; Blood, n = 108, in µg/mL) was 0.25-4 and the MIC50 ([10]; Respiratory, N = 157) was 0.5 µg/mL (≈ 0.309 µM). The MIC90 ([10]; Respiratory, N = 157) was 0.5 µg/mL (≈ 0.309 µM), the Mode (MIC) ([10]; Respiratory, N = 157) was 0.5 µg/mL and the “Range (MIC)” value ([10]; Respiratory, N = 157, in µg/mL) was 0.12-1. For the same molecule, the MIC50 ([10]; Skin/Wound, N = 191) was 0.5 µg/mL (≈ 0.309 µM), the MIC90 ([10]; Skin/Wound, N = 191) was 0.5 µg/mL (≈ 0.309 µM) and the Mode (MIC) ([10]; Skin/Wound, N = 191) was 0.5 µg/mL. For the same molecule, the “Range (MIC)” value ([10]; Skin/Wound, N = 191) was “≦0.06-1”.
